Measurements taken from article PMC8778984 (Pharmaceutics, 2021).
“Also recorded” adds a separate entry of the source. Read-outs that look alike come from different tables or passages of the source.

Columns and labels:
[1] = target: T1, DHFR (dihydrofolate reductase), partially purified from chicken liver (Gallus gallus, UniProt P00378); assay: Cell-free enzymatic assay for DHFR (NADPH oxidation, absorbance at 340 nm); format: biochemical; settings: for % Inhibition relative to MTX: DHFR inhibitory potency relative to MTX
T1 construct: Fresh chicken liver (20 g) was cut into pieces, homogenized in 0.1 M MnCl2 and centrifuged; from tissue; host or cells: chicken liver
T1 sequence (P00378 1-189): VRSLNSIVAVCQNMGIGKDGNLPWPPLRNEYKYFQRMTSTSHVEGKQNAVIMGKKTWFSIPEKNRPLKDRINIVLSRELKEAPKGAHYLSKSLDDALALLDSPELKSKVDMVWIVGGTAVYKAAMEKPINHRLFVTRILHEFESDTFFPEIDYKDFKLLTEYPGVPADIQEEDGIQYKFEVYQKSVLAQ
Experimental: This was carried out by the procedure of Kaufman and Kemerer with some modifications: Fresh chicken liver (20 g) was cut into pieces, homogenized in 0.1 M MnCl2 and centrifuged. The supernatant was brought to pH 5–6 with HCl, and ZnSO4 was added gradually to obtain a final concentration of 20 mM. The pH was elevated to pH 7.5–8 by the addition of solid NaHCO3. […] The proteins that remained in the supernatant were precipitated with 4.54 M ammonium sulfate. The precipitate was then dissolved in 50 mM Tris-HCl (pH 7.5) containing 0.1 M KCl and dialyzed for two days against the same buffer, and then frozen in aliquots at −80 °C until used.
(§1) The assay was based on DHFR-dependent reduction of dihydrofolate to tetrahydrofolate. In this process, NADPH is oxidized to NADP, and the extent of the oxidation is monitored by the decrease in absorbance at 340 nm. Tubes containing 1.0 mL each of 0.05 M Tris-HCl buffer (pH 7.5) 0.5 M KCl, 0.137 mM NADPH, and 0.187 mM DHF were incubated for 1 h at 25 °C in the absence and the presence of partially purified DHFR (35 µg/mL) and increasing concentrations of MTX or its derivatives. The absorbance at 340 nm was then monitored.
Figure 1 Inhibition of dihydrofolate reductase by MTX and MTX analogues. The indicated concentrations of MTX and its derivatives were analyzed for their potencies to inhibit the reduction of dihydrofolate to tetrahydrofolate by DHFR. In this process, NADPH is oxidized to NADP and the extent of this oxidation is monitored by the decrease in absorbance at 340 nm (experimental section).

CNS-1 rat glioma cells = assay: Growth inhibition, MTT viability assay, CNS-1 cells; format: cell-based; settings: for inhibition compared with MTX (in words): CNS-1 (Figure 4B), at 10 µM, to a lesser extent at 1 µM; for antiproliferative potency compared with MTX (in words): MTX-sensitive cell line CNS-1, 48 h MTT; for antiproliferative potency, BSA–S–S–MTX compared with BSA–(CH2)6–MTX (in words): sensitive glioma cell line CNS-1
Experimental: (§2) In this study, we used two glioma cell lines: (i) CNS-1; rat glioma; (ii) U251; human glioma. Cells were a generous gift from Dr. Yael Mardor from the Sheba Medical Center, Israel.
(§3) Cancer cell lines were grown in monoculture in 96-well plates in RPMI (CNS-1 cells) or DMEM containing 10% fetal bovine serum, 2 mM L-glutamine, penicillin (100 units/mL), and streptomycin (0.1 mg/mL) under humidified atmosphere containing 5% CO2. […] Cell viability was measured after 48 h using a standard MTT (3-(4,5-dimethylthiazol-2-yl)-2,5-diphenyltetrazolium bromide) assay, as described before.

U251 human glioma cells = assay: Growth inhibition, MTT viability assay, U251 cells; format: cell-based; settings: for antiproliferative potency compared with MTX (in words): MTX-insensitive glioma cell line U251, 48 h MTT; for antiproliferative potency, BSA–S–S–MTX compared with BSA–(CH2)6–MTX (in words): insensitive glioma cell line U251
Experimental: as §2, §3

[2] = parameters: method as in printed; settings: ref not given, cited from earlier work
glioma cell lines = settings: read-out: average EC50; variety of glioma cell lines, large variation among lines; cited from earlier work
[3] = target: T2, DHFR (dihydrofolate reductase) (Gallus gallus, UniProt P00378); assay: Reactivation of BSA–MTX analogues by DTT, GSH or L-cysteine, read out as DHFR inhibitory potency; format: biochemical, chicken; settings: for Fold Reactivation by DTT: 2 mM DTT (dithiothreitol); for reactivation by glutathione and L-cysteine (in words): GSH or L-cysteine at concentrations of 100 μM or lower; for % Activity Relative to MTX: Table 2, + 2 mM DTT
T2 construct: Fresh chicken liver (20 g) was cut into pieces, homogenized in 0.1 M MnCl2 and centrifuged; from tissue; host or cells: chicken liver
T2 sequence (P00378 1-189): T1 sequence (P00378 1-189)
Experimental: as §1
A solution of BSA–GSSG–MTX (50 μM in 0.1 M HEPES buffer, pH 7.4, 130 mM NaCl) was divided into plastic tubes (1.0 mL/tube) and incubated for 2 h at 25 °C in the absence and the presence of 2 mM DTT and the indicated concentrations of either GSH or L-cysteine. Samples were then analyzed for their DHFR inhibitory potencies and the IC50 values were determined. Results are expressed as percent of maximal reactivation (obtained by preincubation with 2 mM DTT). Each point is the arithmetic mean of n = 4 tubes ± SEM.

[4] = Maleimide–thiol exchange assay (incubation with GSH, dialysis, absorbance at 372 nm); format: physicochemical
Experimental: BSA–S–MAL–(CH2)3–CONH–MTX (0.2 mM) was dissolved in 1.0 mL 0.1 M HEPES, pH 7.3, and transferred to a tube containing 7.5 mg GSH corresponding to […] which are 100 molar excess over the conjugate. The solution was incubated for 7 h at 37 °C, followed by extensive dialysis and lyophilization. Absorbance was read at 372 nm.

cancer cell lines = assay: Antiproliferative efficacy in the cancer cell lines (unpublished results); format: cell-based
[5] = Table 1, 1 h at 25 °C, 0.137 mM NADPH, 0.187 mM DHF, read-out: IC50
[6] = Table 2, without DTT, read-out: DHFR Inhibitory Potency (IC50)

CN(Cc1cnc2nc(N)nc(N)c2n1)c1ccc(C(=O)NC(CCC(=O)NCCS)C(=O)O)cc1 (centres unmarked) [MTX–cystamine, MTX–CONH–(CH2)2–SH]
IC50 [1, 5]: 340 ± 11 nM | % Inhibition relative to MTX ([1]; Table 1): 16.2%

CN(Cc1cnc2nc(N)nc(N)c2n1)c1ccc(C(=O)NC(CCC(=O)NCCSSCCN)C(=O)O)cc1 (centres unmarked) [MTX–dicystamine, MTX–CONH–(CH2)2–S–S–(CH2)2–NH2]
IC50 [1, 5]: 110 ± 12 nM | % Inhibition relative to MTX ([1]; Table 1): 50%

CN(Cc1cnc2nc(N)nc(N)c2n1)c1ccc(C(=O)N[C@@H](CCC(=O)NCCCCCCN)C(=O)O)cc1 [MTX–hexylamine, MTX–CONH–(CH2)6–NH2]
IC50 [1, 5]: 80 ± 4 nM | % Inhibition relative to MTX ([1]; Table 1): 69% | % of the DHFR inhibitory potency of MTX ([1]; running text and scheme legend): 69%

CN(Cc1cnc2nc(N)nc(N)c2n1)c1ccc(C(=O)N[C@@H](CCC(=O)O)C(=O)O)cc1 [Methotrexate, reference compound]
viability in comparison to nontreated cells (CNS-1 rat glioma cells; CNS-1, at maximal effect, 48 h): 36% | EC50 (CNS-1 rat glioma cells; Rattus norvegicus, Glioma cell, CNS-1, 48 h, MTT, read-out: EC50 (concentration needed to obtain 50% of viable cells relative to untreated cells)): ~70 nM | Emax (CNS-1 rat glioma cells; Rattus norvegicus, Glioma cell, CNS-1, within 48 h, read-out: maximal effect): 64% | EC50 (U251 human glioma cells; Homo sapiens, U-251, U251, 48 h, MTT, read-out: EC50 (concentration needed to obtain 50% of viable cells relative to untreated cells)): ~10000 nM | Emax (U251 human glioma cells; Homo sapiens, U-251, U251, at ~10 µM, within 48 h, read-out: maximum effect): 49% | pKa ([2]; α-carboxylate): ~ 2.1 | pKa ([2]; γ-carboxylate): ~ 4.1 | EC50 (glioma cell lines): 2400 nM

BSA–S–MAL–(CH2)3–CONH–(CH2)2–S–S–(CH2)2–NH^γCO–MTX [BSA–S–S–MTX]
% Activity Relative to MTX ([1]; Table 2, without DTT): 2.0% | IC50 [1, 6]: 2750 ± 200 nM | Fold Reactivation by DTT [3]: 7.05 fold | reactivation by GSH (in words) ([3]; GSH at a concentration of 1 mM or higher): reactivated | reactivation by glutathione and L-cysteine (in words) [3]: do not reactivate | % Activity Relative to MTX [3]: 14.1% | inhibition compared with MTX (in words) (CNS-1 rat glioma cells): significantly more inhibitory than MTX | antiproliferative potency compared with MTX (in words) (CNS-1 rat glioma cells): less potent than MTX | antiproliferative potency, BSA–S–S–MTX compared with BSA–(CH2)6–MTX (in words) (CNS-1 rat glioma cells): slightly less potent than BSA–(CH2)6–MTX; also recorded: essentially equipotent | antiproliferative potency compared with MTX (in words) (U251 human glioma cells): significantly more potent | antiproliferative potency, BSA–S–S–MTX compared with BSA–(CH2)6–MTX (in words) (U251 human glioma cells): slightly less potent than BSA–(CH2)6–MTX; also recorded: essentially equipotent

BSA–S–MAL–(CH2)3–CONH–(CH2)6–NH^γCO–MTX [BSA–(CH2)6–MTX]
% Activity Relative to MTX ([1]; Table 2, without DTT): 7.0% | IC50 [1, 6]: 790 ± 30 nM | maleimide–thiol exchange (in words) ([4]; 100-fold molar excess of GSH, 7 h, pH 7.3, 37 °C, listed as BSA–S–MAL–(CH2)3–CONH–MTX): did not undergo significant maleimide–thiol exchange; also recorded: such exchange does not occur | Absorbance at 372 nm per mg Protein ([4]; Control (no GSH)): 0.479 ± 0.03 | Absorbance at 372 nm per mg Protein ([4]; GSH, 100 molar excess, 7 h, 37 °C, pH 7.3, then dialysis): 0.487 ± 0.03 | cleavage of the spacer peptide bond (in words) ([4]; neutral pH): not cleaved | inhibition compared with MTX (in words) (CNS-1 rat glioma cells): significantly more inhibitory than MTX | antiproliferative potency compared with MTX (in words) (CNS-1 rat glioma cells): less potent than MTX | antiproliferative potency, BSA–S–S–MTX compared with BSA–(CH2)6–MTX (in words) (CNS-1 rat glioma cells): essentially equipotent | antiproliferative potency compared with MTX (in words) (U251 human glioma cells): significantly more potent | antiproliferative potency, BSA–S–S–MTX compared with BSA–(CH2)6–MTX (in words) (U251 human glioma cells): essentially equipotent

BSA–S–MAL–(CH2)3–CO–NH–GSSG–NH^γCO–MTX [BSA–GSSG–MTX]
% Activity Relative to MTX ([1]; Table 2, without DTT): 3.14% | IC50 [1, 6]: 1750 ± 120 nM | Fold Reactivation by DTT [3]: 5.16 fold | reactivation by glutathione and L-cysteine (in words) [3]: do not reactivate | % Activity Relative to MTX [3]: 16.2% | reactivation of DHFR inhibitory potency by GSH and cysteine (in words) ([3]; cell-free state): highly effective in reactivating | antiproliferative efficacy (in words) (cancer cell lines): low antiproliferative efficacy
